Source: patent publication US9340551B2, “Inhibitors of bacterial type III secretion system” (MICROBIOTIX, INC., priority 2011, dated 2016)
Read-outs that look alike come from different tables or passages of the source.

Columns and labels:
[1] = tested on: T3SS-mediated translocation (ExoU intoxication of CHO cells); test: Inhibition of P. aeruginosa ExoU-dependent CHO cell killing (LDH release); details: Pseudomonas aeruginosa
Method: Rescue of CHO cells from T3SS-mediated cytotoxicity of translocated effector protein ExoU was measured using a lactate dehydrogenase (LDH) release assay as previously reported (Lee, et al., 2005, Infect. Immun., 73:1695-705) except that infection with P. aeruginosa was carried out for 2 hr in the absence of gentamicin. Percent cytotoxicity (% LDH release) was calculated relative to that of the uninfected control, which was set at 0% LDH release, and that of cells infected with P. aeruginosa unprotected by test compound (100% LDH release). LDH released from unprotected, infected cells reached at least 80% of the value obtained from complete lysis with 1% Triton X-100 in the 2 hr timeframe of this experiment.

[2] = Mammalian cytotoxicity (MTS conversion, serum-free medium); assay type: cell-based, human; details: human, HeLa cells
[3] = tested on: T3SS-mediated secretion of ExoS′-βLA fusion protein, P. aeruginosa strain MDM973; test: ExoS′-βLA effector-β-lactamase secretion assay (nitrocefin cleavage); details: for IC50: Pseudomonas aeruginosa; for inhibition of ExoS′-βLA secretion, in words: FIG. 4, concentration-dependence; for IC50 in the ExoS′βLA assay versus reference inhibitor MBX-1641, in words: FIG. 2; for Secretion, % @50 μM: Table 4; for performance in T3SS-mediated secretion relative to MBX-1641, in words: α-propyl and α-isopropyl analogs
HeLa cells = test: Mammalian cytotoxicity (MTS conversion, serum-free medium); assay type: cell-based, human; details: Table 4; average of 1-20 determinations; read-out: Ave. CC50
[4] = read-out: Ave. Translocation IC50
[5] = Table 4, average of 1-20 determinations, read-out: Ave. CC50

For `CCC(Oc1ccc(Cl)cc1Cl)C(=O)NCc1ccc(F)cc1` (centres unmarked) [MBX-2084], the IC50 [1, 4] was 7.4 µM, the CC50 at 3 days [2, 5] was 45 µM and the IC50 ([3]; read-out: Ave. Secretion IC50) was 4.3 µM. For the same compound, the melting point was 108 °C.
In the case of `CCC(Oc1ncc(Cl)cc1Cl)C(=O)NCc1ccc2sccc2c1` (centres unmarked) [MBX-2401, N-(benzo[b]thiophen-5-ylmethyl)-2-(3,5-dichloropyridin-2-yloxy)butanamide], the “inhibition of ExoS′-βLA secretion, in words” value (“inhibition” below) [3] is reported as “potent inhibition of secretion”.
For `COc1ccc(CNC(=O)C(C)Oc2ccc(Cl)cc2Cl)cc1OC` (centres unmarked) [MBX-1942], the melting point was 127 °C.
`COc1ccc(CNC(=O)C(Oc2ccc(Cl)cc2Cl)C(C)C)cc1OC` (centres unmarked) [MBX-2147] showed an IC50 [1, 4] of over 100 µM, an IC50 ([3]; read-out: Ave. Secretion IC50) of 94.9 µM and a melting point of 109 °C.
`CC(Oc1ccc(Cl)cc1Cl)C(=O)NCc1ccc(F)cc1` (centres unmarked) [MBX-1642] gave an IC50 ([3]; read-out: Ave. Secretion IC50) of 9.8 µM.
`CCC(Oc1ccc(Cl)cc1Cl)C(=O)NCc1ccc(OC)c(OC)c1` (centres unmarked) [MBX-2082] gave an IC50 [1, 4] of over 100 µM, an IC50 ([3]; read-out: Ave. Secretion IC50) of 16.3 µM and a melting point of 117 °C.
Work on `CC(C)C(Oc1ccc(Cl)cc1Cl)C(=O)NCc1ccc(F)cc1` (centres unmarked) [MBX-2149] yielded an IC50 ([3]; read-out: Ave. Secretion IC50) of 1580 µM and a melting point of 106 °C.
With `CCC(Oc1ncc(Cl)cc1Cl)C(=O)NCc1ccc2c(c1)OCO2` (racemic) [MBX-2263] the IC50 [1, 4] was 17 µM, the CC50 at 3 days [2, 5] was over 100 µM and the “IC50 in the ExoS′βLA assay versus reference inhibitor MBX-1641, in words” value [3] was “improvements”. The “inhibition” value [3] was “potent inhibition of secretion” and the IC50 ([3]; read-out: Ave. Secretion IC50) was 2 µM.
With `CCCC(Oc1ccc(Cl)cc1Cl)C(=O)NCc1ccc2c(c1)OCO2` (centres unmarked) [MBX-2085] the “Secretion, % @50 μM (printed in the Secretion IC50 column)” value ([3]; Table 3, @50 μM) was 14% @50 μM, the “Secretion, % @50 μM” value ([3]; @50 μM) was 14% @50 μM and the “performance in T3SS-mediated secretion relative to MBX-1641, in words” value [3] was “significantly inferior performance”. For the same compound, the melting point was 92 °C.
In the case of `CCC(Oc1ncc(Cl)cc1Cl)C(=O)NCc1ccc2sccc2c1` (centres unmarked) [MBX-2402, N-(benzo[b]thiophen-5-ylmethyl)-2-(3,5-dichloropyridin-2-yloxy)butanamide], the “inhibition” value [3] is reported as “little inhibitory effect”.
`CC(Oc1ccc(Cl)cc1Cl)C(=O)NCc1ccc2c(c1)OCO2` (racemic) [MBX-1641, N-(benzo[d][1,3]dioxol-5-ylmethyl)-2-(2,4-dichlorophenoxy)propanamide, reference compound] gave an IC50 ([3]; read-out: Ave. Secretion IC50) of 7 µM.
For `CCCC(Oc1ccc(Cl)cc1Cl)C(=O)NCc1ccc(OC)cc1` (centres unmarked) [MBX-2087], the “Secretion, % @50 μM” value ([3]; @50 μM) was 16% @50 μM and the melting point was 103 °C.
With `CCCC(Oc1ccc(Cl)cc1Cl)C(=O)NCc1ccc(OC)c(OC)c1` (centres unmarked) [MBX-2086] the “Secretion, % @50 μM” value ([3]; @50 μM) was 18% @50 μM and the melting point was 82 °C.
For `CC(C)C(Oc1ccc(Cl)cc1Cl)C(=O)NCc1ccc2c(c1)OCO2` (centres unmarked) [MBX-2146], the IC50 ([3]; read-out: Ave. Secretion IC50) was 100 µM, the IC50 ([3]; read-out: Secretion IC50) was 100 µM and the “performance in T3SS-mediated secretion relative to MBX-1641, in words” value [3] was “significantly inferior performance”. It also gave a melting point of 74 °C.
Work on `COc1ccc(CNC(=O)C(Oc2ccc(Cl)cc2Cl)C(C)C)cc1` (centres unmarked) [MBX-2148] yielded an IC50 ([3]; read-out: Ave. Secretion IC50) of 210 µM and a melting point of 77 °C.
`CCC(Oc1ccc(Cl)cc1Cl)C(=O)NCc1ccc2c(c1)OCO2` (centres unmarked) [MBX-2081] showed an IC50 [1, 4] of 4.2 µM, an IC50 ([1]; read-out: Translocation IC50) of 4.2 µM and a CC50 (HeLa cells) of over 200 µM. For the same compound, the CC50 at 3 days ([2]; Table 3, serum-free media, read-out: CC50) was over 200 µM, the “IC50 in the ExoS′βLA assay versus reference inhibitor MBX-1641, in words” value [3] was “improvements” and the IC50 ([3]; read-out: Ave. Secretion IC50) was 3.9 µM. The IC50 ([3]; read-out: Secretion IC50) was 3.9 µM, the “SI, Selectivity Index (CC50/secretion IC50)” value ([3]; Table 3, HeLa CC50 / secretion IC50) was over 50 and the “increase in potency as a T3SS inhibitor relative to MBX-1641” value ([3]; α-ethyl analog versus MBX-1641) was 3-4 fold. The melting point was 112 °C.
In the case of `CCC(Oc1ncc(Cl)cc1Cl)C(=O)NCc1ccc(F)cc1` (centres unmarked) [MBX-2264], the IC50 [1, 4] is reported as 30 µM, the CC50 at 3 days [2, 5] is reported as 85 µM and the “IC50 in the ExoS′βLA assay versus reference inhibitor MBX-1641, in words” value [3] is reported as “improvements”. It also gave an IC50 ([3]; read-out: Ave. Secretion IC50) of 2 µM.
In the case of `CCC(Oc1ccc(Cl)cc1Cl)C(=O)N(C)Cc1ccc2c(c1)OCO2` (centres unmarked) [MBX-2159], the IC50 [1, 4] is reported as over 100 µM and the IC50 ([3]; read-out: Ave. Secretion IC50) is reported as 19.1 µM.
Compound `CCC(Oc1ccc(Cl)cc1Cl)C(=O)NCc1ccc(OC)cc1` (centres unmarked) [MBX-2083] has an IC50 [1, 4] of 29.3 µM, an IC50 ([3]; read-out: Ave. Secretion IC50) of 8.1 µM and a melting point of 86 °C.
For `COc1ccc(CNC(=O)C(C)Oc2ccc(Cl)cc2Cl)cc1` (centres unmarked) [MBX-1940], the melting point was 77 °C.
In the case of `CCC(Oc1ncc(Cl)cc1Cl)C(=O)NCc1ccc2sccc2c1` (racemic) [MBX-2359, N-(benzo[b]thiophen-5-ylmethyl)-2-(3,5-dichloropyridin-2-yloxy)butanamide], the “inhibition” value [3] is reported as “potent inhibition of secretion” and the IC50 ([3]; read-out: Ave. Secretion IC50) is reported as 1.5 µM.
In the case of `CCCC(Oc1ccc(Cl)cc1Cl)C(=O)NCc1ccc(F)cc1` (centres unmarked) [MBX-2088], the “Secretion, % @50 μM” value ([3]; @50 μM) is reported as 9% @50 μM.
